Experiments:
Format in all cases: in vivo
Polygonum convolvulus [1] = assay: Post-emergence herbicidal activity against POLCO; settings: Fallopia convolvulus, 504 h, dosage 320 g/ha, rated visually after about 3 weeks
Summary of the method: (§1)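 Percent herbicidal activity, 0% like controls and 100% dead plants, is scored visually roughly 3 weeks after foliar treatment. Treatment follows 2–3 weeks of greenhouse growth in sandy loam, at the one-leaf stage, using WP or EC preparations in water with 0.5% additive (600 l/ha).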

Abutilon theophrasti = assay: Post-emergence herbicidal activity against ABUTH; settings: Abutilon theophrasti, 504 h, dosage 320 g/ha, rated visually after about 3 weeks
Summary of the method: as §1

Viola tricolor [2] = assay: Post-emergence herbicidal activity against VIOTR; settings: Viola tricolor, 504 h, dosage 320 g/ha, rated visually after about 3 weeks
Summary of the method: as §1

Lolium rigidum [3] = assay: Post-emergence herbicidal activity against LOLRI; settings: Lolium rigidum, 504 h, dosage 320 g/ha, rated visually after about 3 weeks
Summary of the method: as §1

Stellaria media [4] = assay: Pre-emergence herbicidal activity against STEME; settings: Stellaria media, 504 h, dosage 80 g/ha, scored visually after about 3 weeks vs untreated controls
Summary of the method: (§2)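 Visual percent rating against untreated controls after roughly 3 weeks in the greenhouse, 0% meaning control-like and 100% dead plants. Treatment was pre-emergence: WP or EC formulations sprayed onto covering soil at 600 l/ha water volume with 0.5% additive.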

Pharbitis purpurea [5] = assay: Post-emergence herbicidal activity against PHBPU; settings: Ipomoea purpurea, 504 h, dosage 320 g/ha, rated visually after about 3 weeks
Summary of the method: as §1

Avena fatua [6] = assay: Pre-emergence herbicidal activity against AVEFA; settings: Avena fatua, 504 h, dosage 80 g/ha, scored visually after about 3 weeks vs untreated controls, read-out: Pre-emergence herbicidal activity in % against AVEVA (AVEFA)
Summary of the method: as §2

Hordeum murinum [7] = assay: Pre-emergence herbicidal activity against HORMU; settings: Hordeum murinum, 504 h, dosage 80 g/ha
Summary of the method: as §2

Amaranthus retroflexus [8] = assay: Pre-emergence herbicidal activity against AMARE; settings: Amaranthus retroflexus, 504 h, dosage 80 g/ha, scored visually after about 3 weeks vs untreated controls
Summary of the method: as §2

Alopecurus myosuroides [9] = assay: Pre-emergence herbicidal activity against ALOMY; settings: Alopecurus myosuroides, 504 h, dosage 80 g/ha, scored visually after about 3 weeks vs untreated controls
Summary of the method: as §2

[10] = Pre-emergence herbicidal action against harmful plants (summary of the tables); settings: 504 h, application rate of 0.08 kg of active substance or less per hectare, read-out: herbicidal action, pre-emergence treatment (very good activity)
Description: (§3) 1. Pre-emergence herbicidal action against harmful plants and crop plant compatibility Seeds of monocotyledonous and dicotyledonous weed plants and crop plants are placed in plastic or wood fiber pots and covered with soil. The compounds of the invention, formulated in the form of wettable powders (WP) or as emulsion concentrates (EC), are then applied onto the surface of the covering soil as aqueous suspension or emulsion with addition of 0.5% additive at a water application rate of 600 l/ha (converted). After the treatment, the pots are placed in a greenhouse and kept under good growth conditions for the trial plants. After about 3 weeks, the effect of the preparations is scored visually in comparison with untreated controls as percentages. For example, 100% activity=the plants have died, 0% activity=like control plants.
As shown by the results, compounds according to the invention such as, for example, the compounds No. I-02 and other compounds from the tables (I-05, I-10, I-11, I-12, I-13, I-14, I-15, I-16, I-17, I-18, I-19, I-20, I-21, I-22, I-23, I-24, I-25, I-26, I-27, I-28, I-29) have, when used for pre-emergence treatment, very good activity (80% to 100% herbicidal action) against harmful plants such as Abutilon theophrasti, Alopecurus myosuroides, Amaranthus retroflexus, Avena fatua, Cyperus esculentus, Echinochloa crus-galli, Hordeum murinum, Lolium rigidum, Pharbitis purpurea, Polygonum convolvulus, Setaria viridis, Stellaria media, Veronica persica and Viola tricolor at an application rate of 0.08 kg of active substance or less per hectare.

Hordeum murinum [11] = assay: Post-emergence herbicidal activity against HORMU; settings: Hordeum murinum, 504 h, dosage 320 g/ha, rated visually after about 3 weeks
Summary of the method: as §1

Veronica persica [12] = assay: Pre-emergence herbicidal activity against VERPE; settings: Veronica persica, 504 h, dosage 80 g/ha
Summary of the method: as §2

Avena fatua [13] = assay: Post-emergence herbicidal activity against AVEFA; settings: Avena fatua, 504 h, dosage 320 g/ha, rated visually after about 3 weeks
Summary of the method: as §1

Viola tricolor [14] = assay: Pre-emergence herbicidal activity against VIOTR; settings: Viola tricolor, 504 h, dosage 80 g/ha, scored visually after about 3 weeks vs untreated controls
Summary of the method: as §2

Setaria viridis = assay: Pre-emergence herbicidal activity against SETVI; settings: Setaria viridis, 504 h, dosage 80 g/ha, scored visually after about 3 weeks vs untreated controls
Summary of the method: as §2

Pharbitis purpurea [15] = assay: Pre-emergence herbicidal activity against PHBPU; settings: dosage 80 g/ha, scored visually after about 3 weeks vs untreated controls
Description: as §3, with “control plants. [table]” for “control plants.”

Stellaria media [16] = assay: Post-emergence herbicidal activity against STEME; settings: Stellaria media, 504 h, dosage 320 g/ha, rated visually after about 3 weeks
Summary of the method: as §1

Lolium rigidum [17] = assay: Pre-emergence herbicidal activity against LOLRI; settings: Lolium rigidum, 504 h, dosage 80 g/ha, scored visually after about 3 weeks vs untreated controls
Summary of the method: as §2

Veronica persica [18] = assay: Post-emergence herbicidal activity against VERPE; settings: Veronica persica, 504 h, dosage 320 g/ha, rated visually after about 3 weeks
Summary of the method: as §1

Amaranthus retroflexus [19] = assay: Post-emergence herbicidal activity against AMARE; settings: Amaranthus retroflexus, 504 h, dosage 320 g/ha, rated visually after about 3 weeks
Summary of the method: as §1

Polygonum convolvulus [20] = assay: Pre-emergence herbicidal activity against POLCO; settings: Fallopia convolvulus, 504 h, dosage 80 g/ha, scored visually after about 3 weeks vs untreated controls
Summary of the method: as §2

Echinochloa crus-galli [21] = assay: Post-emergence herbicidal activity against ECHCG; settings: Echinochloa crus-galli, 504 h, dosage 320 g/ha, rated visually after about 3 weeks
Summary of the method: as §1

Alopecurus myosuroides [22] = assay: Post-emergence herbicidal activity against ALOMY; settings: Alopecurus myosuroides, 504 h, dosage 320 g/ha, rated visually after about 3 weeks
Summary of the method: as §1

Echinochloa crus-galli [23] = assay: Pre-emergence herbicidal activity against ECHCG; settings: Echinochloa crus-galli, 504 h, dosage 80 g/ha, scored visually after about 3 weeks vs untreated controls
Summary of the method: as §2

C=C[C@]1(C(=O)N[C@@H]2CO[C@H](C(=O)NOCC)C2)CC(c2cc(F)cc(F)c2)=NO1 (mixture of isomers) [Example I-12, (5S)-3-(3,5-difluorophenyl)-N-[cis-5-(ethoxycarbamoyl)tetrahydrofuran-3-yl]-5-vinyl-4H-isoxazole-5-carboxamide]
90%: pest or weed control at 320 g/ha (Lolium rigidum [3]) | pest or weed control at 320 g/ha (Hordeum murinum [11]) | Pre-emergence herbicidal activity in % against PHBPU (Pharbitis purpurea [15]) | pest or weed control at 320 g/ha (Stellaria media [16]) | pest or weed control at 320 g/ha (Echinochloa crus-galli [21]) | pest or weed control at 320 g/ha (Alopecurus myosuroides [22])
80 to 100%: pest or weed control at 80 g/ha [10]
80%: pest or weed control at 320 g/ha (Polygonum convolvulus [1]) | pest or weed control at 320 g/ha (Abutilon theophrasti) | pest or weed control at 320 g/ha (Viola tricolor [2]) | pest or weed control at 320 g/ha (Pharbitis purpurea [5]) | pest or weed control at 320 g/ha (Veronica persica [18]) | pest or weed control at 320 g/ha (Amaranthus retroflexus [19])
100%: pest or weed control at 80 g/ha (Stellaria media [4]) | pest or weed control at 80 g/ha (Avena fatua [6]) | pest or weed control at 80 g/ha (Hordeum murinum [7]) | pest or weed control at 80 g/ha (Amaranthus retroflexus [8]) | pest or weed control at 80 g/ha (Alopecurus myosuroides [9]) | pest or weed control at 80 g/ha (Veronica persica [12]) | pest or weed control at 320 g/ha (Avena fatua [13]) | pest or weed control at 80 g/ha (Viola tricolor [14]) | pest or weed control at 80 g/ha (Setaria viridis) | pest or weed control at 80 g/ha (Lolium rigidum [17]) | pest or weed control at 80 g/ha (Polygonum convolvulus [20]) | pest or weed control at 80 g/ha (Echinochloa crus-galli [23])

Source: patent US11613522B2, “Herbicidally active 3-phenylisoxazoline-5-carboxamides of tetrahydro- and dihydrofurancarboxamides” (BAYER AKTIENGESELLSCHAFT, priority 2017, dated 2023)
